Active and inactive are the calls of the source. The calls are words filed in the database; no cut-off is given here.
Columns and labels:
[1] = target: T1, DNA topoisomerase 2-alpha (Homo sapiens, UniProt P11388); test: Inhibition of human topoisomerase 2 using […] as substrate after 10 mins by decatenation assay
Bos taurus = species: Bos taurus; test: Inhibition of supercoiling activity of calf thymus topoisomerase 1 using […] as substrate after 15 mins by ethidium bromide staining
Escherichia coli [2] = test: Inhibition of cleavage activity of Escherichia coli DNA gyrase using relaxed pBR322 as substrate at 200 uM after 10 mins by agarose gel electrophoresis analysis relative to control
[3] = target: T1, DNA topoisomerase 2-alpha; test: Inhibition of cleavage activity of human topoisomerase 2 using relaxed pBR322 as substrate at 200 uM after 10 mins by agarose gel electrophoresis analysis relative to control
[4] = Inhibition of supercoiling activity of Escherichia coli DNA gyrase using relaxed pBR322 as substrate after 15 mins by ethidium bromide staining
Escherichia coli [5] = test: Inhibition of Escherichia coli DNA gyrase interaction to 5'-biotinylated DNA after 4 mins by surface plasmon resonance analysis

T1 sequence (P11388 whole entry): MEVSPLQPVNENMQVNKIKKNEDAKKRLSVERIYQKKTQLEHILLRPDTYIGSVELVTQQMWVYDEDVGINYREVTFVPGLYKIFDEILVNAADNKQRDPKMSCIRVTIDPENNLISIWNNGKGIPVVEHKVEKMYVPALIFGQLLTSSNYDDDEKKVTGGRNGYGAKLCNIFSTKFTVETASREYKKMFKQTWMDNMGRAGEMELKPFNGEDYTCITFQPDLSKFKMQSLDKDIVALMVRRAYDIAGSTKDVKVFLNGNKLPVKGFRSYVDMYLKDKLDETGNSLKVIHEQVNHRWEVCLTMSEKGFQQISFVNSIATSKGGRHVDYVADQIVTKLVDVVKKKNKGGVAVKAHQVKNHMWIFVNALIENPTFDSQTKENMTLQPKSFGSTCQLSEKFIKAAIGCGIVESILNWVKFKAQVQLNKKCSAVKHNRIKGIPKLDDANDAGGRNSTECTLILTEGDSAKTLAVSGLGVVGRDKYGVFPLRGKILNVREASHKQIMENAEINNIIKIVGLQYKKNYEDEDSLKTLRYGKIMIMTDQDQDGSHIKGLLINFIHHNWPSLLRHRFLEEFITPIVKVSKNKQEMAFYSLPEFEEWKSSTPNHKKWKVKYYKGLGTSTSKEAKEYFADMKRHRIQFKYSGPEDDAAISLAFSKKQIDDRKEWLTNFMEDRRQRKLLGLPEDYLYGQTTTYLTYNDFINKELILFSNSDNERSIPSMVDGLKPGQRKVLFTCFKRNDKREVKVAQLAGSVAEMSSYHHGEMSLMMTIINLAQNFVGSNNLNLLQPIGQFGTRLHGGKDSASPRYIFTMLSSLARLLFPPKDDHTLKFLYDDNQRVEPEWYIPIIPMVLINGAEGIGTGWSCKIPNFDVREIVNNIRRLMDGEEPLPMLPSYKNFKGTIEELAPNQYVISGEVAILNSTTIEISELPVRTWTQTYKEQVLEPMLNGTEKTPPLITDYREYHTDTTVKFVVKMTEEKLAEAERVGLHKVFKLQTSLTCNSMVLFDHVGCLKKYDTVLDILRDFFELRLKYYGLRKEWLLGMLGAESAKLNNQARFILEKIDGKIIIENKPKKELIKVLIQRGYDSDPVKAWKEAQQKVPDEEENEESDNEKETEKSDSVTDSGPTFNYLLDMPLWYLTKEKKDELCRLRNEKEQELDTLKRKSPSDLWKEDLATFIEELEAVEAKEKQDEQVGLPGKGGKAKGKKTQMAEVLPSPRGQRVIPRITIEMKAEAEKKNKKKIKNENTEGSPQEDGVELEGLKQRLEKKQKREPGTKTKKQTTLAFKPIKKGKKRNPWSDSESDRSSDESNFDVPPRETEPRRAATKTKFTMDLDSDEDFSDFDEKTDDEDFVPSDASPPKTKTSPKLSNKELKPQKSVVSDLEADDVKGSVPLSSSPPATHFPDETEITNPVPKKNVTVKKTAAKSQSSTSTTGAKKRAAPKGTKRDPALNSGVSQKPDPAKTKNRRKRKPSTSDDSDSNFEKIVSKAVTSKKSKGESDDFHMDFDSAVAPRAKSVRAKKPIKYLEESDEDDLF

| Compound | IC50 [1] [µM] | inhibition (Bos taurus) | fold change (FC) (Escherichia coli [2]) | fold change (FC) [3] | IC50 [4] [µM] | inhibition (Escherichia coli [5]) |
| --- | --- | --- | --- | --- | --- | --- |
| O=C(CCCCCC(=O)Oc1c(-c2ccc(O)c(O)c2)oc2cc(O)cc(O)c2c1=O)NCC(=O)Nc1ccc(CO)cc1 | > 200 | inactive | 3 | 2.1 | > 200 |  |
| COC(=O)/C=C/C=C/C=C/C=C/C(=O)Nc1c(O)c2ccc(O)c(Cl)c2oc1=O |  |  |  |  | 50 |  |
| COC(=O)CCCCCCCCC(=O)Oc1c(-c2ccc(O)c(O)c2)oc2cc(O)cc(O)c2c1=O | > 200 | inactive | < 1 | < 1 | > 200 |  |
| O=c1c(O)c(-c2ccc(O)c(O)c2)oc2cc(O)cc(O)c12 |  | Active |  |  |  |  |
| CC(=O)O[C@@H]1[C@@H](C)O[C@@H](c2ccc3c(c2O)[C@@H](O)[C@]24O[C@@]2(C3=O)[C@@]2(O)C(=O)C=C(C)C[C@@]2(O)C[C@@H]4O)C[C@H]1OC(=O)/C=C/C=C/C=C/C=C/C(=O)Nc1c(O)c2ccc(O)c(Cl)c2oc1=O [SIMOCYCLINONE D8] |  |  | < 1 |  | 0.41 |  |
| O=C(CCCCCC(=O)Oc1c(-c2ccc(O)c(O)c2)oc2cc(O)cc(O)c2c1=O)NCC(=O)Nc1ccccc1 | 149 | Active | 7.8 | 2.7 | 48.6 | inactive |
| O=C(CCCCCC(=O)Oc1c(-c2ccc(O)c(O)c2)oc2cc(O)cc(O)c2c1=O)NCC(=O)Nc1ccc(O)c(CO)c1 | 78.9 | inactive | 1.9 | < 1 | > 200 |  |
| O=C(O)Cc1ccc(NC(=O)CNC(=O)CCCCCC(=O)Oc2c(-c3ccc(O)c(O)c3)oc3cc(O)cc(O)c3c2=O)cc1 | > 200 | inactive | 1.8 | < 1 | > 200 |  |
| O=C(CCCCCC(=O)Oc1c(-c2ccc(O)c(O)c2)oc2cc(O)cc(O)c2c1=O)NCC(=O)Nc1ccc(O)cc1 | > 200 | Active | 5 | 2.4 | 84.7 | inactive |
